Values quoted from earlier work as cited in patent publication US20020148003A1, “Transgenic plant or plants with a naturally high water content overproducing at least two amino acids of the aspartate family” (AVEBE, priority 1996, published 2002).

Experiments:
[1] = target: plant aspartate kinase (AK) sensitive to lysine; details: plant AKs, lysine inhibition; read-out: I50 of plant AKs sensitive to lysine
[2] = system: plant dihydrodipicolinate synthase (DHPS)
[3] = target: E. coli DHPS (Escherichia coli, UniProt P0A6L2); details: lysine inhibition, read-out: I50 of E. coli DHPS for lysine
Chain of E. coli DHPS (P0A6L2 whole entry): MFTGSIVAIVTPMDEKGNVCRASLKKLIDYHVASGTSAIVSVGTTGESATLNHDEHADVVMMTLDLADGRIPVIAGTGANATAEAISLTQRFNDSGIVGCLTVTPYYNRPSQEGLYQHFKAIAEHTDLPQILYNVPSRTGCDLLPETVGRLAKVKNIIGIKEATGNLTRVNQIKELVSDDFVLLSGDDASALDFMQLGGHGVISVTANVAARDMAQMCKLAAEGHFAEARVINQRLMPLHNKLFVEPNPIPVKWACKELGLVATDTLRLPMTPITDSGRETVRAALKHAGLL

With NCCCC[C@H](N)C(=O)O [lysine] as the compound, how does the IC50 [1] read?
The IC50 was 100 to 700 µM.

And the “sensitivity to lysine inhibition, plant DHPS versus E. coli DHPS” value ([2]; plant DHPS more sensitive than E. coli DHPS)?
Its value is “about 100 fold”.

What about the “sensitivity to lysine inhibition, plant DHPS versus plant AKs” value ([2]; plant DHPS more sensitive than lysine-sensitive plant AKs) of the same compound?
The value was “about 10 fold”.

And the IC50 ([2]; plant DHPS, feedback inhibition by end product, read-out: I50 of DHPS for lysine)?
Its IC50 is 10 to 50 µM.

And the IC50 [3]?
The IC50 was ~1000 µM.
